Assay results reported in patent US10682320B2, “Method for inhibiting osteoclast development” (West Virginia University, priority 2012, dated 2020).

Columns and labels:
[1] = system: store-operated Ca2+ entry (SOCe); assay: Store-operated Ca2+ entry (SOCe) in human osteoclasts; assay type: cell-based; details: n=3; data not shown
Experimental: Human monocytes were isolated from normal buffy coat cells (60-80 ml) obtained with approval of institutional review boards by separation from donor blood, the white-cell depleted blood retained for clinical use. Human monocyte culture and differentiation were as reported (see, Yaroslayskly B B, Zhang Y, Kalla S E, Garcia P V, Sharrow A C, Li Y, Zaidi M, Wu C, Blair H C, “NO-dependent osteoclast motility: Reliance on cGMP-dependent protein kinase I and VASP”, J Cell Sci I, Vol. 18, pages 5479-5487, 2005). […]
Ratiometric imaging of intracellular Ca^2+ using fura-2 was as described (see, Zhou et al., 2009 above). […] Ca^2+ measurements were made using a Leica DMI 6000B fluorescence microscope controlled by Slidebook Software. Fluorescence emission at 505 nm was monitored while alternating between 340 and 380 nm excitation wavelengths at a frequency of 0.67 Hz; intracellular Ca^2+ measurements are shown as 340/380 nm emission ratios obtained from groups (35-45) of single cells. […]
(§1) The haloanilide DCPA blocks store-operated Ca^2+ channel function in Jurkat cells with no effect on ER Ca^2+ content. […] To address this, the present inventor examined HEK293 cells stably expressing Orai I and transiently transfected with YFP-STIMI and measured the effect of DCPA on CRAC current or Icrac. […]

[2] = biological target: T1, CRAC channel (Orai I / STIM I) (Homo sapiens, UniProt Q13586); assay: Whole cell CRAC current (Icrac) in HEK293 cells expressing Orai I and YFP-STIM I; assay type: cell-based; details: whole cell clamp
T1 construct: expressed in transfected cells; host or cells: HEK293
Experimental: Analysis was performed in HEK293 cells stably expressing Orai I and transfected with STIM I YFP used conventional whole cell voltage recordings as described (see, Wang Y, Deng X, Zhou Y, Hendron E, Mancarelia S, Ritchie M F. Tang X D, Baba Y, Kurosaki T, Mori Y, Soboloff J, Gill D L., “STIM protein coupling in the activation of Orai channels”, Proc Natl Acad Sci USA Vol. 106, pages 7391-7396, 2009). Immediately after establishment of the whole-cell electrode seal, voltage ramps spanning from—100 to +100 mV in 50 msec were delivered from a holding potential of 0 mV at a rate of 0.5 Hz. A 10 mV junction potential compensation was applied. […]
as §1, with “Icrac. CRAC channel activity was measured in the whole cell clamp position after passively depleting Ca^2+ stores via the presence of 10 mM EGTA in the patch pipette.” for “Icrac.”

[3] = system: human monocytes differentiating into osteoclasts; assay: Human osteoclast differentiation in vitro (multinucleation, TRAP); assay type: cell-based; details: 8 days after RANKL
Experimental: Human monocytes were isolated from normal buffy coat cells (60-80 ml) obtained with approval of institutional review boards by separation from donor blood, the white-cell depleted blood retained for clinical use. Human monocyte culture and differentiation were as reported (see, Yaroslayskly B B, Zhang Y, Kalla S E, Garcia P V, Sharrow A C, Li Y, Zaidi M, Wu C, Blair H C, “NO-dependent osteoclast motility: Reliance on cGMP-dependent protein kinase I and VASP”, J Cell Sci I, Vol. 18, pages 5479-5487, 2005). Briefly, human monocytes cells were isolated from buffy coat on ficoll lymphocyte separation media and cultured at ˜6×10^5 cells per cm^2 in monocyte maintenance medium, Dulbecco's modified essential medium (DMEM) with 20 ng/ml of human m-CSF and 10% FBS, for 24 hours (h). After 24 h in culture, the medium was changed to osteoclast differentiation medium containing in addition of human 50 ng/ml of RANKL, with the additional inhibitors or activators as specified in results. Human osteoclast cultures were generally maintained for a minimum of 7 days before analysis, or longer times as specified in results.
The effect of DCPA on human osteoclast differentiation 8 days after addition of RANKL was evaluated.

[4] = biological target: T2, STIM I/Orai I interaction (Homo sapiens, UniProt Q13586); assay: 2-APB-induced STIM I ct translocation to plasma membrane; assay type: cell-based; details: DCPA 100 μM, 2-APB 50 μM
T2 construct: the cytosolic fragment of STIM I (STIM 1 ct); expressed in transfected cells
Experimental: HEK293 cells, maintained in DMEM with 10% FBS, were transfected with YFP-STIM I using Lipofectamine 2000 (Invitrogen, Carlsbad, Calif.) for 5 h (37° C.; 5% CO2) followed by a 24-h recovery. Cells were placed in 140 mM NaCl, 5 mM KCl, 1 mM MgCl2, 10 mM glucose, 15 mM HEPES, 0.1% BSA, 2 mM CaCl2 and analyzed by confocal microscopy for STIM I puncta formation using a Nikon phase-fluorescence microscope with CCD detectors (Diagnostic instruments, Sterling Heights, Mich.). Phase or transmitted light microscopy used 10-40× objectives and red, green, and blue filters to assemble color images. Fluorescence images used 1.4 NA 40× oil objectives. Red fluorescence used excitation at 530-560 nm, a 575 nm dichroic minor, and 580-650 nm emission filter. Transfection data were analyzed using Nikon NIS Elements Imaging Software. The effect of DCPA on STIM I/Orai I association was determined in wild-type HEK293 cells transfected with STIM I-YFP as described in Wang Y, Deng X, Zhou Y, Hendron E, Mancarelia S, Ritchie M F, Tang X D, Baba Y, Kurosaki T, Mori Y, Soboloff J, Gill DL, “STIM protein coupling in the activation of Orai channels”, Proc Natl Acad Sci USA, Vol. 106, pages 7391-7396, 2009. Experiments were performed on a Leica DMI 6000B fluorescence microscope controlled by Slidebook Software (Intelligent Imaging Innovations, Denver, Colo.).

[5] = cited from earlier work

T1 sequence (Q13586 23-685): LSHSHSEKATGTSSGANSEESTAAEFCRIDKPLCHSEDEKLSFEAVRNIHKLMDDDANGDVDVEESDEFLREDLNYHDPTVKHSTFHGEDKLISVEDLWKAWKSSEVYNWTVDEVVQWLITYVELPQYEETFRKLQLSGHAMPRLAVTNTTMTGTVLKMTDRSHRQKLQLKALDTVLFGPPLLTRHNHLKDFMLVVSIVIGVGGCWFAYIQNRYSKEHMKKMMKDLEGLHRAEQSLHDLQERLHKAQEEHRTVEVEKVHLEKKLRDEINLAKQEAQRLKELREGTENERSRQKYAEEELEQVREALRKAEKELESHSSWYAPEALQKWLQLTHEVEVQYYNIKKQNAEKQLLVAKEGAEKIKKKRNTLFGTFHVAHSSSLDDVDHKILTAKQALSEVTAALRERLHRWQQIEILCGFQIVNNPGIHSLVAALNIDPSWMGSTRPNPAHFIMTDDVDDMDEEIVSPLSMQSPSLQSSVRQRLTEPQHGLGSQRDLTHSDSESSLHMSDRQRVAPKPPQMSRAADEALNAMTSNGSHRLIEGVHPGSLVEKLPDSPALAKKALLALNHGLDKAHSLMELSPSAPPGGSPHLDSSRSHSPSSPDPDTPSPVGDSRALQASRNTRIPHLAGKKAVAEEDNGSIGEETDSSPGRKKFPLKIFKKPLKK
T2 sequence (Q13586 235-685 limits assumed): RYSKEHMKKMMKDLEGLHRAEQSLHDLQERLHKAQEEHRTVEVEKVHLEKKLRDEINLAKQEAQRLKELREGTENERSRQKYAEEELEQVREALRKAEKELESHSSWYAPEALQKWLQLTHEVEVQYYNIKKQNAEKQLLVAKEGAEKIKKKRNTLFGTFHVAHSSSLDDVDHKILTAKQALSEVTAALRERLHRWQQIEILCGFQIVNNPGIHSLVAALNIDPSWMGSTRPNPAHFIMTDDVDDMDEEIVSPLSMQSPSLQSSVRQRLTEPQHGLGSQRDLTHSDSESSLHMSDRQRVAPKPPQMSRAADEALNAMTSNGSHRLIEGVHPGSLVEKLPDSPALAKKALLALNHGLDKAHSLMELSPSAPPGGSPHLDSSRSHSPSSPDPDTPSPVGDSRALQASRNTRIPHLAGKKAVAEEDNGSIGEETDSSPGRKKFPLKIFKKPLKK

With `CCC(=O)Nc1ccc(Cl)c(Cl)c1` [DCPA, N-(3,4-dichlorophenyl)propanamide] the “reduction of SOCe in osteoclasts” value [1] was 27.5%, the “current-voltage relationship versus control cells” value [2] was “did not show significant differences” and the “time for CRAC current to return to baseline after break-in” value ([2]; 10 mM EGTA in pipette) was “less than 4 minutes”. For the same molecule, the “number of multinucleated TRAP+ cells” value ([3]; 1.0 μM) was “minimal effect”, the “number of multinucleated cells” value ([3]; 10 and 100 μM) was “marked progressive reduction” and the TRAP activity ([3]; up to highest concentration (100 μM)) was “no differences”. For the same molecule, the “ability of 2-APB to induce STIM I ct translocation to the plasma membrane” value [4] was “dramatically attenuated”, the “doses mice can tolerate” value [5] was > 100 mg/kg and the “doses producing frank immunotoxicity” value ([5]; mice) was > 150 mg/kg.
